For nine molecules, pest or weed control results are on record in patent publication US10206394B2, “Herbicidal compounds” (Syngenta Participations AG, priority 2014, dated 2019).

The structures appear in SMILES notation. Where two headings read alike, the source gives them in different places.

What all share (test): Glasshouse assay for herbicidal activity (pre- and post-emergence), percentage phytotoxicity
Holding throughout (assay type): in vivo

In one assay the test system is Avena fatua (AVEFA). As to conditions: Avena fatua. The method, boiled down:
(§1)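 Pot-grown, standard soil. PRE: spray 1 d post-sowing; POST: ~12 d. Glasshouse 24/18 °C (warm spp.) / 20/16 °C (cool spp.), 16 h light, 65% RH, watered 2×/day. Visual % damage, 20 DAA PRE, 15 DAA POST.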

Assay [1] deals with Echinochloa crus-galli (ECHCG). Particulars: Echinochloa crus-galli. The method, boiled down:
as §1

Another assay concerns Lolium perenne (LOLPE). As to conditions: Lolium perenne. The method, boiled down: as §1
In assay [2] the test system is Alopecurus myosuroides (ALOMY). As to conditions: Alopecurus myosuroides. An outline of the steps: as §1
[3] abbreviates: pre-emergence, 480 h, Rate 250 g/ha, pre-emergence, assessed visually 20 DAA, 100%=total damage, 0%=no damage, read-out: Pre-emergence herbicidal activity (percentage phytotoxicity) AVEFA PRE.
Setting [4] is: post-emergence, 360 h, Rate 250 g/ha, post-emergence, assessed visually 15 DAA, 100%=total damage, 0%=no damage, read-out: Post-emergence herbicidal activity (percentage phytotoxicity) ECHCG POST.
Setting [5] is: pre-emergence, 480 h, Rate 250 g/ha, pre-emergence, assessed visually 20 DAA, 100%=total damage, 0%=no damage, read-out: Pre-emergence herbicidal activity (percentage phytotoxicity) ECHCG PRE.
The mark [6] stands for this setting: post-emergence, 360 h, Rate 250 g/ha, post-emergence, assessed visually 15 DAA, 100%=total damage, 0%=no damage, read-out: Post-emergence herbicidal activity (percentage phytotoxicity) LOLPE POST.
[7] abbreviates: pre-emergence, 480 h, Rate 250 g/ha, pre-emergence, assessed visually 20 DAA, 100%=total damage, 0%=no damage, read-out: Pre-emergence herbicidal activity (percentage phytotoxicity) LOLPE PRE.
Setting [8] is: pre-emergence, 480 h, Rate 250 g/ha, pre-emergence, assessed visually 20 DAA, 100%=total damage, 0%=no damage, read-out: Pre-emergence herbicidal activity (percentage phytotoxicity) ALOMY PRE.
The mark [9] stands for this setting: post-emergence, 360 h, POST-emergence, rate 250 g/ha, visual score 15 DAA (100%=total damage, 0%=no damage), read-out: Post-emergence herbicidal activity (percentage phytotoxicity) AVEFA POST.
The mark [10] stands for this setting: pre-emergence, 480 h, PRE-emergence, rate 250 g/ha, visual score 20 DAA (100%=total damage, 0%=no damage), read-out: Pre-emergence herbicidal activity (percentage phytotoxicity) AVEFA PRE.
The mark [11] stands for this setting: post-emergence, 360 h, POST-emergence, rate 250 g/ha, visual score 15 DAA (100%=total damage, 0%=no damage), read-out: Post-emergence herbicidal activity (percentage phytotoxicity) ECHCG POST.
Setting [12] is: pre-emergence, 480 h, PRE-emergence, rate 250 g/ha, visual score 20 DAA (100%=total damage, 0%=no damage), read-out: Pre-emergence herbicidal activity (percentage phytotoxicity) ECHCG PRE.
[13] abbreviates: post-emergence, 360 h, POST-emergence, rate 250 g/ha, visual score 15 DAA (100%=total damage, 0%=no damage), read-out: Post-emergence herbicidal activity (percentage phytotoxicity) LOLPE POST.
The mark [14] stands for this setting: pre-emergence, 480 h, PRE-emergence, rate 250 g/ha, visual score 20 DAA (100%=total damage, 0%=no damage), read-out: Pre-emergence herbicidal activity (percentage phytotoxicity) LOLPE PRE.
[15] abbreviates: post-emergence, 360 h, POST-emergence, rate 250 g/ha, visual score 15 DAA (100%=total damage, 0%=no damage), read-out: Post-emergence herbicidal activity (percentage phytotoxicity) ALOMY POST.
Setting [16] is: pre-emergence, 480 h, PRE-emergence, rate 250 g/ha, visual score 20 DAA (100%=total damage, 0%=no damage), read-out: Pre-emergence herbicidal activity (percentage phytotoxicity) ALOMY PRE.
[17] abbreviates: post-emergence, 360 h, 250 g/ha, post-emergence, 15 DAA, visual assessment (100%=total damage, 0%=no damage), read-out: Post-emergence herbicidal activity (percentage phytotoxicity) AVEFA POST.
The mark [18] stands for this setting: pre-emergence, 480 h, 250 g/ha, pre-emergence, 20 DAA, visual assessment (100%=total damage, 0%=no damage), read-out: Pre-emergence herbicidal activity (percentage phytotoxicity) AVEFA PRE.
The mark [19] stands for this setting: post-emergence, 360 h, 250 g/ha, post-emergence, 15 DAA, visual assessment (100%=total damage, 0%=no damage), read-out: Post-emergence herbicidal activity (percentage phytotoxicity) ECHCG POST.
The mark [20] stands for this setting: pre-emergence, 480 h, 250 g/ha, pre-emergence, 20 DAA, visual assessment (100%=total damage, 0%=no damage), read-out: Pre-emergence herbicidal activity (percentage phytotoxicity) ECHCG PRE.
Where [21] appears, read: post-emergence, 360 h, 250 g/ha, post-emergence, 15 DAA, visual assessment (100%=total damage, 0%=no damage), read-out: Post-emergence herbicidal activity (percentage phytotoxicity) LOLPE POST.
Where [22] appears, read: pre-emergence, 480 h, 250 g/ha, pre-emergence, 20 DAA, visual assessment (100%=total damage, 0%=no damage), read-out: Pre-emergence herbicidal activity (percentage phytotoxicity) LOLPE PRE.
[23] abbreviates: post-emergence, 360 h, 250 g/ha, post-emergence, 15 DAA, visual assessment (100%=total damage, 0%=no damage), read-out: Post-emergence herbicidal activity (percentage phytotoxicity) ALOMY POST.
[24] abbreviates: pre-emergence, 480 h, 250 g/ha, pre-emergence, 20 DAA, visual assessment (100%=total damage, 0%=no damage), read-out: Pre-emergence herbicidal activity (percentage phytotoxicity) ALOMY PRE.

On to `Cc1ccc(-c2cc(C)c(C3C(=O)CC(CC(=O)NCc4cccc(C(F)(F)F)c4)C3=O)c(C)c2)nc1` (stereo not shown) [Compound A158], for which the pest or weed control at 250 g/ha was determined as 70% in the assay with Avena fatua (AVEFA) (post-emergence, 360 h, Rate 250 g/ha, post-emergence, assessed visually 15 DAA, 100%=total damage, 0%=no damage, read-out: Post-emergence herbicidal activity (percentage phytotoxicity) AVEFA POST); 20% in the assay on Avena fatua (AVEFA) (setting [3]); 90% in assay [1] (setting [4]); 80% in assay [1] (setting [5]); 80% in the assay on Lolium perenne (LOLPE) (setting [6]); 60% in the assay with Lolium perenne (LOLPE) (setting [7]). Also, the pest or weed control at 250 g/ha is 70% in assay [2] (post-emergence, 360 h, Rate 250 g/ha, post-emergence, assessed visually 15 DAA, 100%=total damage, 0%=no damage, read-out: Post-emergence herbicidal activity (percentage phytotoxicity) ALOMY POST) and 20% in assay [2] (setting [8]).
As for `C#CCN(C)C(=O)CC1CC(=O)C(c2c(C)cc(OCC(F)(F)F)cc2CC)C1=O` (stereo not shown) [Compound B222], the pest or weed control at 250 g/ha in the assay on Avena fatua (AVEFA) (setting [9]) was determined as 100%; in the assay on Avena fatua (AVEFA) (setting [10]) it was 90%; in assay [1] (setting [11]), 100%; in assay [1] (setting [12]), 100%; with Lolium perenne (LOLPE) (setting [13]), 100%; in the assay with Lolium perenne (LOLPE) (setting [14]), 100%. Besides, the pest or weed control at 250 g/ha in assay [2] (setting [15]) and in assay [2] (setting [16]) was 100% in each case.
Consider `Cc1cc(-c2cncnc2)cc(C)c1C1C(=O)CC(CC(=O)NCc2ncccc2Cl)C1=O` (stereo not shown) [Compound A143], for which the pest or weed control at 250 g/ha in the assay on Avena fatua (AVEFA) (setting [3]) is 0%; in assay [1] (setting [4]) it was 40%; in assay [1] (setting [5]), 10%; in the assay on Lolium perenne (LOLPE) (setting [6]) it was 20%; with Lolium perenne (LOLPE) (setting [7]), 10%; in assay [2] (setting [8]) it was 0%.
As for `Cc1cc(-c2ncc(Cl)cc2F)cc(C)c1C1C(=O)CC(CC(=O)NC(C)C)C1=O` (stereo not shown) [Compound B118], the pest or weed control at 250 g/ha in the assay with Avena fatua (AVEFA) (setting [17]) was 100%; in the assay on Avena fatua (AVEFA) (setting [18]), 90%; in assay [1] (setting [19]), 100%; in assay [1] (setting [20]), 100%; in the assay with Lolium perenne (LOLPE) (setting [21]), 100%; with Lolium perenne (LOLPE) (setting [22]), 100%. Besides, the pest or weed control at 250 g/ha in assay [2] (setting [23]) and in assay [2] (setting [24]) was 100% in each case.
Regarding `CNC(=O)CC1CC(=O)C(c2c(C)cc(-c3ncc(F)cn3)cc2C)C1=O` (stereo not shown) [Compound B280], the pest or weed control at 250 g/ha (with Avena fatua (AVEFA) (setting [9]); with Avena fatua (AVEFA) (setting [10]); in assay [1] (setting [11]); in assay [1] (setting [12]); with Lolium perenne (LOLPE) (setting [13]); in the assay with Lolium perenne (LOLPE) (setting [14])) was 100% in each case. Moreover, the pest or weed control at 250 g/ha in assay [2] (setting [15]) and in assay [2] (setting [16]) was 100% each time.
For `Cc1cc(-c2ncc(F)cn2)cc(Cl)c1C1C(=O)CC(CC(=O)NC(C)(C)C)C1=O` (stereo not shown) [Compound B405], the pest or weed control at 250 g/ha in the assay with Avena fatua (AVEFA) (post-emergence, 360 h, Rate 250 g/ha, post-emergence, visual assessment 15 DAA, 100%=total damage, 0%=no damage, read-out: Post-emergence herbicidal activity (percentage phytotoxicity) AVEFA POST) turned out to be 100%; in the assay with Avena fatua (AVEFA) (pre-emergence, 480 h, Rate 250 g/ha, pre-emergence, visual assessment 20 DAA, 100%=total damage, 0%=no damage, read-out: Pre-emergence herbicidal activity (percentage phytotoxicity) AVEFA PRE), 90%; in assay [1] (post-emergence, 360 h, Rate 250 g/ha, post-emergence, visual assessment 15 DAA, 100%=total damage, 0%=no damage, read-out: Post-emergence herbicidal activity (percentage phytotoxicity) ECHCG POST), 100%; in assay [1] (pre-emergence, 480 h, Rate 250 g/ha, pre-emergence, visual assessment 20 DAA, 100%=total damage, 0%=no damage, read-out: Pre-emergence herbicidal activity (percentage phytotoxicity) ECHCG PRE) it was 100%; with Lolium perenne (LOLPE) (post-emergence, 360 h, Rate 250 g/ha, post-emergence, visual assessment 15 DAA, 100%=total damage, 0%=no damage, read-out: Post-emergence herbicidal activity (percentage phytotoxicity) LOLPE POST), 100%; in the assay with Lolium perenne (LOLPE) (pre-emergence, 480 h, Rate 250 g/ha, pre-emergence, visual assessment 20 DAA, 100%=total damage, 0%=no damage, read-out: Pre-emergence herbicidal activity (percentage phytotoxicity) LOLPE PRE) it was 100%. Also, the pest or weed control at 250 g/ha in assay [2] (post-emergence, 360 h, Rate 250 g/ha, post-emergence, visual assessment 15 DAA, 100%=total damage, 0%=no damage, read-out: Post-emergence herbicidal activity (percentage phytotoxicity) ALOMY POST) worked out at 100%; in assay [2] (pre-emergence, 480 h, Rate 250 g/ha, pre-emergence, visual assessment 20 DAA, 100%=total damage, 0%=no damage, read-out: Pre-emergence herbicidal activity (percentage phytotoxicity) ALOMY PRE), 90%.
On to `C=C(F)CNC(=O)CC1CC(=O)C(c2c(C)cc(-c3ncc(F)cc3F)cc2C)C1=O` (stereo not shown) [Compound B304], for which the pest or weed control at 250 g/ha stood at 100% in the assay with Avena fatua (AVEFA) (setting [9]); 100% with Avena fatua (AVEFA) (setting [10]); 100% in assay [1] (setting [11]); 90% in assay [1] (setting [12]); 100% in the assay with Lolium perenne (LOLPE) (setting [13]); 100% in the assay with Lolium perenne (LOLPE) (setting [14]). In addition, the pest or weed control at 250 g/ha in assay [2] (setting [15]) and in assay [2] (setting [16]) was 100% each time.
As to `C#CCN(C)C(=O)CC1CC(=O)C(c2c(C)cc(OCC(F)(F)F)cc2C)C1=O` (stereo not shown) [Compound B213], the pest or weed control at 250 g/ha in the assay on Avena fatua (AVEFA) (setting [9]) came to 90%; in the assay on Avena fatua (AVEFA) (setting [10]), 50%; in assay [1] (setting [11]) it was 100%; in assay [1] (setting [12]), 90%; in the assay on Lolium perenne (LOLPE) (setting [13]) it was 90%; in the assay with Lolium perenne (LOLPE) (setting [14]) it was 70%. In addition, the pest or weed control at 250 g/ha is 90% in assay [2] (setting [15]) and 80% in assay [2] (setting [16]).
On to `Cc1cc(-c2ncc(C#N)cc2Cl)cc(C)c1C1C(=O)CC(CC(=O)NC(C)(C)C)C1=O` (stereo not shown) [Compound B83], for which the pest or weed control at 250 g/ha was found to be 80% in the assay with Avena fatua (AVEFA) (setting [17]); 30% with Avena fatua (AVEFA) (setting [18]); 90% in assay [1] (setting [19]); 90% in assay [1] (setting [20]); 80% in the assay with Lolium perenne (LOLPE) (setting [21]); 80% in the assay on Lolium perenne (LOLPE) (setting [22]). In addition, the pest or weed control at 250 g/ha is 70% in assay [2] (setting [23]) and 80% in assay [2] (setting [24]).
